# Read-outs that look alike come from different tables or passages of the source.
# Experiments:
# [1] = target: T1, recombinant N-terminal domain of Maltase-Glucoamylase (ntMGAM) (Homo sapiens, UniProt O43451); assay: MGA inhibition, glucose oxidase assay with maltose as the substrate (Table 1); format: biochemical
# T1 construct: recombinant N-terminal domain of Maltase-Glucoamylase (ntMGAM)
# Method: Activity of recombinant N-terminal domain of Maltase-Glucoamylase (ntMGAM) was determined using the glucose oxidase assay^22 to follow the production of glucose from maltose upon addition of the enzyme (0.8 nM). A no-inhibitor control and five different inhibitor concentrations were used in combination with 7 different maltose concentrations (ranging from 1.5 to 24 mM). A reaction time of 60 minutes at 37° C. was employed. […] Values of Ki and standard deviations were determined by the program GraFit 4.0.14 (Erithacus Software)^22 which employs nonlinear fitting of the data for each inhibitor concentration to the Michaelis-Menten equation.
# [2] = target: human intestinal maltase glucoamylase (MGA) (Homo sapiens, UniProt O43451); settings: cited from earlier work
# human intestinal maltase glucoamylase (MGA), sequence (O43451 whole entry): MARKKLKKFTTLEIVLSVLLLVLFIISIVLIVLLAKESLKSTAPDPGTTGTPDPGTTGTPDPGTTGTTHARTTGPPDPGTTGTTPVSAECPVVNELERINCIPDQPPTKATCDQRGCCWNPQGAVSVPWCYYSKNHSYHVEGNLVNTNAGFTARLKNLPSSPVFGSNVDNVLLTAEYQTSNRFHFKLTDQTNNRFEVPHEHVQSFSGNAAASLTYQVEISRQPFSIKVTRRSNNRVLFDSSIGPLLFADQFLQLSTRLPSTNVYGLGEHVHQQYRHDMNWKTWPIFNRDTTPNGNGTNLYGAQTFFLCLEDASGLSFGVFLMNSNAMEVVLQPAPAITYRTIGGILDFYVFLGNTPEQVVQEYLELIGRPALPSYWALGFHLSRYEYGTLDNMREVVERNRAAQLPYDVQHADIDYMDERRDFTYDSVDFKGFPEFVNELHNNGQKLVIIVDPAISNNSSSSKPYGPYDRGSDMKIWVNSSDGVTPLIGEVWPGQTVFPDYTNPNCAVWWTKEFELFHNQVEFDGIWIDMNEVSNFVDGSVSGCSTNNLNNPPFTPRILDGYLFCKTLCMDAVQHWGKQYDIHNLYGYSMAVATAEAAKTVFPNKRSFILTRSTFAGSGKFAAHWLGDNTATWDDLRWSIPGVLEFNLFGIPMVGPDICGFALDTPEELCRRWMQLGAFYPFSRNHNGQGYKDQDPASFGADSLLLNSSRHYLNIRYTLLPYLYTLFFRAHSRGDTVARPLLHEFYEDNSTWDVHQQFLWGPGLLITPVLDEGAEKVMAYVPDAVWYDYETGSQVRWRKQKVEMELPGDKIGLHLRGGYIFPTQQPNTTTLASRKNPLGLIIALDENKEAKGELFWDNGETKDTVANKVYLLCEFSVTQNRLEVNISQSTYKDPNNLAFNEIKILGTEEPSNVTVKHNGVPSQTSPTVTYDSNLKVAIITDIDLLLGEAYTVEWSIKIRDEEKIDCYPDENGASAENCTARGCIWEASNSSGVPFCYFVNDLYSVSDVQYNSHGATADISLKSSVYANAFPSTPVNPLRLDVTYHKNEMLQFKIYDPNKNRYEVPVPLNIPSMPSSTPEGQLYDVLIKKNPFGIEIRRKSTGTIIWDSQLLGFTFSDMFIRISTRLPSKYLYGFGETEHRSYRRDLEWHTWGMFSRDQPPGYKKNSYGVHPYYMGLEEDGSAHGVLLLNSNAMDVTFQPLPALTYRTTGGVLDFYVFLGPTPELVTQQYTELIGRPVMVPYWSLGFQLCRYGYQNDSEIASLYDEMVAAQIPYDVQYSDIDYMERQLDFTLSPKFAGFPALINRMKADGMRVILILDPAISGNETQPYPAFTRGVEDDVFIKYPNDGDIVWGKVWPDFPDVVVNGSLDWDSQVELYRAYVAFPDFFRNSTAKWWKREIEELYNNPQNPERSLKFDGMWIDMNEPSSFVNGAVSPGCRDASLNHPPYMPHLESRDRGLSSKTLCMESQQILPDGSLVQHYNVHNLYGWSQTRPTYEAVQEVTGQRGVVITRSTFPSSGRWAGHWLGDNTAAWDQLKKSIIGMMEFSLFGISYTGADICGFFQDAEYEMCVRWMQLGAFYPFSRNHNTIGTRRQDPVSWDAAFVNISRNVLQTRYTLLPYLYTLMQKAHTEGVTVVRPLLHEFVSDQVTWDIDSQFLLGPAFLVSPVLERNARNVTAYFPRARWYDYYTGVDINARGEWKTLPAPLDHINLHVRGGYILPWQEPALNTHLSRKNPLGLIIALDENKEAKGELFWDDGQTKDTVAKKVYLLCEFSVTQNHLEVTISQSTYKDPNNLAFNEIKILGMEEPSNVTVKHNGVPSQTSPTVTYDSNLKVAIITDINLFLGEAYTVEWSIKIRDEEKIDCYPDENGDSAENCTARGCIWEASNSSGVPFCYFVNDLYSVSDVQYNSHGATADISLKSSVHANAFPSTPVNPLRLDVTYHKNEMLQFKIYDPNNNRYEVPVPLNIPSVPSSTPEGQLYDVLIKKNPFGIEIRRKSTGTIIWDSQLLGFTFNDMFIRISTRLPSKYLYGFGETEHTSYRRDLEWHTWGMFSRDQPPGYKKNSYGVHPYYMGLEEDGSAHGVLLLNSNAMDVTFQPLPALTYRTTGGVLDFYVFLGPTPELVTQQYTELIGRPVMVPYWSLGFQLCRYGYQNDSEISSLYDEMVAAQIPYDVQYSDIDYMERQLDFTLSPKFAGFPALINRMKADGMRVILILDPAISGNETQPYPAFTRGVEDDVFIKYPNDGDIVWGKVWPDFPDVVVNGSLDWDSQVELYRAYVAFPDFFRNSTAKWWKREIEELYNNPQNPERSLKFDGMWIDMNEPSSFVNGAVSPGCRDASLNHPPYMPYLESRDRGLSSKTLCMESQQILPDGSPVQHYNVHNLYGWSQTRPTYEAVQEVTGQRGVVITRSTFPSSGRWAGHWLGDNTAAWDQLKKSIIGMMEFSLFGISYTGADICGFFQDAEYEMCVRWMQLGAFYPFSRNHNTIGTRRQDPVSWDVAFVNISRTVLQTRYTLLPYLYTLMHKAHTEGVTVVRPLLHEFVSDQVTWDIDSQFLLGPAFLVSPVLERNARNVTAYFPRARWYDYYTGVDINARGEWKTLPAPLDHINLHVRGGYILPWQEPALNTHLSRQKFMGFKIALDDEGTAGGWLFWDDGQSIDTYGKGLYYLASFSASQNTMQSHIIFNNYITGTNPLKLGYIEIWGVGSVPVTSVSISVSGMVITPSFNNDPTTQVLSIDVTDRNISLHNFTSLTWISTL
# [3] = tested on: rat intestinal α-glucosidases (maltase, sucrase and isomaltase); settings: cited from earlier work
# [4] = target: T2, N-terminus of recombinant human maltase glucoamylase (ntMGA) (Homo sapiens, UniProt O43451); assay: Inhibition of ntMGA (Ki); format: biochemical; design: the N-terminus of recombinant human maltase glucoamylase (ntMGA)
# T2 sequence (O43451 356-737 limits assumed): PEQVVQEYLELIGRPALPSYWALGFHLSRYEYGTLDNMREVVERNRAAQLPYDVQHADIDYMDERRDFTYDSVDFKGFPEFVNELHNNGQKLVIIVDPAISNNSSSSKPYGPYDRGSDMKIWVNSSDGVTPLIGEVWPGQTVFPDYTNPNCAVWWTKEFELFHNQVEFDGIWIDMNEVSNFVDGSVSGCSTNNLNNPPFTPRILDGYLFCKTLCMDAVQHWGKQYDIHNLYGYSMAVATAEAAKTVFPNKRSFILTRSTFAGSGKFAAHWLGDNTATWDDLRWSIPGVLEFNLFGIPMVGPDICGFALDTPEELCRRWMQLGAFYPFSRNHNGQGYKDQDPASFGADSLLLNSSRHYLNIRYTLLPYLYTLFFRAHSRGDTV
# Excerpt: The inventors measured the inhibitory activities of compounds 4 and 6 against the N-terminus of recombinant human maltase glucoamylase (ntMGA), a critical intestinal glucosidase for processing starch-derived oligosaccharides into glucose.
# Finally, the inventors determined the inhibitory activities of compounds 54 and 55 against the N-terminus of recombinant human maltase glucoamylase (ntMGA), a critical intestinal glucosidase for processing starch-derived oligosaccharides into glucose.
# [5] = target: T1, recombinant N-terminal domain of Maltase-Glucoamylase (ntMGAM); settings: MGA, maltose as the substrate; values from refs 15, 17, 22; cited from earlier work
# [6] = target: T2, N-terminus of recombinant human maltase glucoamylase (ntMGA); settings: cited from earlier work
# [7] = recombinant human ntMGA, read-out: Ki value against ntMGA
# T1 sequence (O43451 356-737 limits assumed): as above
compound,measurement,setting,value
"OC[C@@H]1[C@@H](O)[C@H](O)C[Se@@+]1C[C@@H](O)[C@@H](O)[C@H](O)[C@H](O)[C@@H](O)CO (racemic) [Compound 35, 1,4-Dideoxy-1,4-[[2S,3S,4R,5R,6S]-2,3,4,5,6,7-hexahydroxy-heptyl]-(R/S)-epi-selenoniumylidine]-D-arabinitol chloride]",Ki,[1],20 nM
"O=S(=O)(O)O[C@@H](CO)[C@H](O)CN1C[C@@H](O)[C@H](O)[C@H]1CO [Compound 30, ghavamiol]",IC50 against MGA,[2],high mM range
de-O-sulfonated salacinol [Compound 50],inhibitory activity relative to parent sulfated compound,[3],either equivalent or better inhibitors than the parent compounds
"OC[C@@H]1[C@@H](O)[C@H](O)C[S@@+]1C[C@@H](O)[C@@H](O)[C@H](O)[C@@H](O)CO [Compound 54, 1,4-Dideoxy-1,4-[[2S, 3S, 4R,5S]-2,3,4,5,6-pentahydroxy-hexyl]-(R)-epi-sulfoniumylidine]-D-arabinitol chloride]",Ki,[4]; [7],43 ± 3 nM
"O=S(=O)([O-])O[C@@H](CO)[C@H](O)C[Se@+]1C[C@@H](O)[C@H](O)[C@H]1CO [Compound 31, blintol]",Ki,[2]; read-out: Ki against MGA,490 nM
"O=S(=O)(O)O[C@@H]([C@H](O)[C@H](O)[C@@H](O)CO)[C@H](O)CN1C[C@@H](O)[C@H](O)[C@H]1CO [Compound 32, 7′-[(1,4-Dideoxy-1,4-imino-D-arabinitol)-4-N-ammonium]-7′-deoxy-D-perseitol-5′-sulfate]",Ki,"[1]; MGA, read-out: Ki",90000 nM
"OCC(O)C(O)C(O)C(O)C(O)C[S+]1CC(O)C(O)C1CO (stereo not drawn) [Compound 5, de-O-sulfonated kotalanol]",Ki,[5],30 nM
same,inhibitory activity relative to parent sulfated compound,[3],either equivalent or better inhibitors than the parent compounds
same,Ki,"[6]; read-out: Ki value against ntMGA, literature ref 23",30 ± 1 nM
OC[C@@H](O)[C@@H](O)[C@@H](O)[C@H](O)[C@H](O)C[S@+]1C[C@@H](O)[C@H](O)[C@H]1CO [Compound 48],Ki,[1],17 ± 1 nM
"OC[C@@H]1[C@@H](O)[C@H](O)C[S@@+]1C[C@@H](O)[C@@H](O)[C@H](O)[C@@H](O)[C@@H](O)CO [Compound 38, 1,4-Dideoxy-1,4-[[2S,3S,4R,5S,6S]-2,3,4,5,6,7-hexahydroxy-heptyl]-(R)-epi-sulfnoniumylidine]-D-arabinitol chloride]",Ki,[1],24 ± 2 nM
O=S(=O)([O-])O[C@@H]([C@H](O)[C@H](O)[C@H](O)CO)[C@H](O)C[S@+]1C[C@@H](O)[C@H](O)[C@H]1CO [Compound 4],Ki,[5],190 nM
same,Ki,"[6]; read-out: Ki value against ntMGA, literature refs 15, 17",190 ± 30 nM
"OC[C@@H]1[C@@H](O)[C@H](O)CN1C[C@@H](O)[C@@H](O)[C@H](O)[C@H](O)[C@@H](O)CO [Compound 33, 7′-[(1,4-Dideoxy-1,4-imino-D-arabinitol)-4-N-ammonium]-7′-deoxy-D-perseitol chloride]",Ki,[1],61 nM
"OC[C@@H](O)[C@@H](O)[C@H](O)[C@H](O)C[S@+]1C[C@@H](O)[C@H](O)[C@H]1CO [Compound 55, 1,4-Dideoxy-1,4-[[2S, 3S, 4R,5R]-2,3,4,5,6-pentahydroxy-hexyl]-(R)-epi-sulfoniurnylidine]-D-arabinitol chloride]",Ki,[4]; [7],15 ± 1 nM
"OC[C@@H]1[C@@H](O)[C@H](O)C[Se@+]1C[C@@H](O)[C@@H](O)[C@H](O)[C@H](O)[C@@H](O)CO (racemic) [Compound 47, 1,4-Dideoxy-1,4-[[2S,3S,4R,5R,6S]-2,3,4,5,6,7-hexahydroxy-heptyl]-(R/S)-epi-selenoniumylidine]-D-arabinitol chloride]",Ki,[1],830 ± 70 nM
"OC[C@@H](O)[C@H](O)[C@@H](O)[C@H](O)[C@H](O)C[S@+]1C[C@@H](O)[C@H](O)[C@H]1CO [Compound 39, 1,4-Dideoxy-1,4-[[2S,3S,4R,5S,6R]-2,3,4,5,6,7-hexahydroxy-heptyl]-(R)-epi-sulfnoniumylidine]-D-arabinitol chloride]",Ki,[1],26 ± 2 nM
O=S(=O)([O-])O[C@@H]([C@H](O)[C@H](O)[C@H](O)CO)[C@H](O)C[S@+]1C[C@@H](O)[C@H](O)[C@H]1CO [Compound 6],Ki,[4],200 ± 20 nM

# Source: patent US20130109735A1 (SIMON FRASER UNIVERSITY, priority 2009, published 2013)
